Source: publication PMC8344235, “α-Amylase and dipeptidyl peptidase-4 (DPP-4) inhibitory effects of Melicope latifolia bark extracts and identification of bioactive constituents using in vitro and in silico approaches” (Pharmaceutical Biology, 2021)
Several values for one entry are separate records, joined by “and”; a condition that tells them apart may be missing. Equal values may be shown once. Read-outs that look alike come from different tables or passages of the source. Marks after values point to notes of the source that are not given here.

Tests used:
[1] = DPPH free radical scavenging assay; settings: for IC50 / DPPH IC50: mean ± SD of triplicates; for DPPH IC50: ND = IC50 not detected at highest tested concentration (1 mg/mL)
Description: Free radical scavenging ability of M. latifolia fractions and compounds were determined using stable free radical 2,2-diphenyl-1-picrylhydrazyl (DPPH) following the method described by Tan et al. ([2019]). The extracts (170 μL) at varying concentrations ([…]) were mixed with 30 μL of methanolic DPPH solution (300 μM) in a 96-well microplate. The mixtures were then incubated at room temperature for 30 min in the dark, followed by an absorbance measurement at 517 nm. For the negative control well, the extract was replaced by methanol. Ascorbic acid, α-tocopherol, and BHT were used as standards.

[2] = β-Carotene bleaching assay; settings: samples 1 mg/mL, 50 °C, 2 h
Description: The antioxidant capacity of M. latifolia fractions and isolated constituents by β-carotene bleaching was performed according to a method described by Kassim et al. ([2019]). In brief, 210 µL of β-carotene solution (1 mg/mL in chloroform) was added to Tween 20 (42 µL) and linoleic acid (5 µL) in a round bottom flask. The chloroform was removed by rotary evaporation prior to the addition of […] of distilled water and shaken to form an emulsion. The emulsion (200 µL) was then transferred into each well of a 96-well microplate that contains 50 µL of samples (1 mg/mL). The mixture was incubated at 50 °C in the dark for 2 h, and its absorbance was measured at 470 nm at the initial time (t = 0) and every subsequent 30 min for 2 h (t = 2). Ascorbic acid, α-tocopherol, and BHT were used as positive controls. Methanol was used to replace the test samples as a negative control. The antioxidant activity (AA) was calculated according to the formula (5): (5) AA% = 1 − [(At=0 – At=2)/(Ac=0 – Ac=2)] × 100 whereby At=0 and At=2 are the absorbance of the samples measured at 0 and 2 h, respectively; Ac=0 and Ac=2 are the absorbance of negative control measured at 0 and 2 h, respectively.

[3] = molecular target: T1, human-recombinant DPP-4 enzyme (Homo sapiens, UniProt P27487); assay: DPP-4 inhibitory assay (fluorescence screening kit); format: biochemical
T1 construct: purchased Cayman Chemical (Ann Arbor, MI)
Description: DPP-4 inhibitor screening kit (Cayman Chemical, Ann Arbor, MI) was used to evaluate the DPP-4 inhibitory activity of the test samples based on a fluorescence assay method. Briefly, samples (10 μL) with different concentrations in DMSO were each pipetted into a 96-well plate followed by the addition of diluted assay buffer (30 μL), diluted human-recombinant DPP-4 enzyme solution (10 μL), and diluted fluorogenic substrate, Gly-Pro-aminomethylcoumarin (AMC) (50 μL). […] The 96-well plate was shaken and incubated for 30 min at 37 °C.

[4] = highest tested concentration, read-out: DPP-4 IC50 not detected at the highest concentration

T1 sequence (P27487 whole entry): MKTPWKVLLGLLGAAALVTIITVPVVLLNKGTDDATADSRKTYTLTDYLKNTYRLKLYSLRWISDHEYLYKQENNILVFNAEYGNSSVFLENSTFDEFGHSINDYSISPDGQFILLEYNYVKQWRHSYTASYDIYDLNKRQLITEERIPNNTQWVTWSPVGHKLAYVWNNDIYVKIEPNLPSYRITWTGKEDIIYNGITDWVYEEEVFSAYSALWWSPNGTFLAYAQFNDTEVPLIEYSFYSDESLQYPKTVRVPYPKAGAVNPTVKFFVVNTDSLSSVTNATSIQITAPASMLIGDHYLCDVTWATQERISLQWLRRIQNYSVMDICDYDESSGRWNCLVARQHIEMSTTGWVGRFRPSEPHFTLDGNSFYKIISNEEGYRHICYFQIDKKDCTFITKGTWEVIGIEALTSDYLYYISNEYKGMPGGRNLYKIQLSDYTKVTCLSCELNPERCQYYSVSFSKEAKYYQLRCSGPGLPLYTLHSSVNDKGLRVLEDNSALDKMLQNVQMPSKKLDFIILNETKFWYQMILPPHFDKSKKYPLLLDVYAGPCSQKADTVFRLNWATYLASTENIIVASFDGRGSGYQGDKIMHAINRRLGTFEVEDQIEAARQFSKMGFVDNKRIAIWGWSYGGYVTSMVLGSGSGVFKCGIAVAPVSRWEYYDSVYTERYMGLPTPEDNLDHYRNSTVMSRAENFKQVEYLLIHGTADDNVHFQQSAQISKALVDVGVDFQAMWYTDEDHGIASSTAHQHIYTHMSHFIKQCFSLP

Row | Structure (SMILES) | IC50 [1] | DPPH IC50 [1] | IC50 [3, 4] | β-Carotene bleaching activity AA (%) [2] | DPPH IC50 not detected at the highest concentration ([1]; highest tested concentration) | IC50 ([3]; mean ± SD of triplicates, ND = IC50 not detected at highest tested concentration (1 mg/mL), read-out: DPP-4 IC50 (converted)) | IC50 ([3]; mean ± SD of triplicates, read-out: DPP-4 IC50 (converted))
1 | CC[C@H](CC[C@@H](C)[C@H]1CC[C@H]2[C@@H]3CC=C4C[C@@H](O)CC[C@]4(C)[C@H]3CC[C@]12C)C(C)C [Compound 1, β-sitosterol] |  |  | > 2410 µM |  |  |  | 
2 | COC(=O)/C=C/c1ccc(O)cc1 [Compound 3, methyl p-coumarate] |  |  |  | 1.08 ± 0.02^g % | > 1000 µg/mL | 911 µM | 911 µM
3 | Cc1c(C)c2c(c(C)c1O)CC[C@@](C)(CCC[C@H](C)CCC[C@H](C)CCCC(C)C)O2 [α-Tocopherol] | 43.6 µM | 18.79 ± 0.01 µg/mL |  | 98.01 ± 0.02^a % |  |  | 

Further lines, with some results ahead:

Row | IC50 [1] | DPPH IC50 [1] | IC50 [3, 4] | Structure (SMILES) | β-Carotene bleaching activity AA (%) [2] | DPPH IC50 not detected at the highest concentration ([1]; highest tested concentration) | IC50 ([3]; mean ± SD of triplicates, ND = IC50 not detected at highest tested concentration (1 mg/mL), read-out: DPP-4 IC50 (converted)) | IC50 ([3]; mean ± SD of triplicates, read-out: DPP-4 IC50 (converted))
4 | 85.2 µM | 15.00 ± 0.01 µg/mL |  | O=C1O[C@H]([C@@H](O)CO)C(O)=C1O [Ascorbic acid] | 35.23 ± 0.02^g % |  |  | 
5 | 44.9 µM | 9.90 ± 0.03 µg/mL |  | Cc1cc(C(C)(C)C)c(O)c(C(C)(C)C)c1 [BHT, butylated hydroxytoluene] | 76.42% and 76.42 ± 0.02^c % |  |  | 
6 | 6430 µM | 1776.01 ± 0.16 µg/mL | > 3620 µM | COc1c(OC)c2c(OC)c3ccoc3cc2oc1=O [Compound 2, halfordin] | 88.48% and 88.48 ± 0.02^b % |  |  | 
7 |  |  | > 6490 µM | O=C(O)c1ccc(O)c(O)c1 [Compound 4, protocatechuic acid] |  |  |  | 
